# Assay results taken from paper PMC7822874, “Chemoprotective antimalarials identified through quantitative high-throughput screening of Plasmodium blood and liver stage parasites” (Scientific Reports, 2021).
# How the values were obtained:
# in vitro = settings: human
# [1] = test system: Plasmodium falciparum Dd2 asexual blood stage parasites; assay: microbe, parasite or virus in culture; design: species or system Plasmodium falciparum Dd2 in human erythrocytes; single determination (one 11-point concentration-response curve); settings: Plasmodium falciparum, DD2, Erythrocyte, 72 h; read-out: AC50
# [2] = HepG2-A16-CD81EGFP cells, uninfected
Structure (SMILES),viability at 48 h (in vitro; [2]) [%],"viability at 48 h, 1 µM (in vitro; [2]) [%]",AC50 [1] [µM],"viability at 48 h, 3 µM (in vitro; [2]) [%]",viability at 66 h (in vitro; [2]) [%],"viability at 48 h, 1 µM (in vitro) [%]","viability at 48 h, 3 µM (in vitro) [%]"
COc1cc(O)c(C(CCN2CCCC(C)C2)c2ccc(N(C)C)cc2)c(OC)c1 (stereo not shown) [MLS000879516-01],110,110,1.68,,,,
COc1cc(O)c(C(CCN2CCN(c3ccccc3)CC2)c2ccc(N(C)C)cc2)c(OC)c1 (stereo not shown) [MLS000879536-01],,102,0.596,99,,,
COc1ccc(C(CCN2CCN(c3ccccc3)CC2)c2c(O)cc(OC)cc2OC)cc1 (stereo not shown) [MLS000879538-01],,95,0.944,95,,,
CCN1CCN(Cc2ccc(NC(=O)c3cc(NC(=O)c4nccnc4N)cc(OC)c3)cc2C(F)(F)F)CC1 [MLS000911568-01],,89,4.73,87,,,
O=S(=O)(c1ccccc1)c1nnn2c1nc(NC1CCN(Cc3ccccc3)CC1)c1cc(Cl)ccc12 [MLS000925207-01],,,2.99,,101,,
CCC(=O)N1CCc2cc(Br)cc(S(=O)(=O)N3CCCC(C(=O)NC(C)(C)C)C3)c21 (stereo not shown) [MLS000937025-01],98.3,98.3,3.35,,,,
Oc1ccccc1CN1CCCC(N2CCN(c3cccc(C(F)(F)F)c3)CC2)C1 (stereo not shown) [MLS000998830-01],,103,1.33,105,,,
COc1ccc(CN2CCCC(C(=O)c3ccc(Cl)cc3)C2)c(O)c1 (stereo not shown) [MLS000998855-01],,,0.531,,,101,103
COc1ccc(CN2CCCC(N3CCc4ccccc4C3)C2)c(O)c1 (stereo not shown) [MLS001001490-01],,84,2.99,89,,,
O=S(=O)(c1ccc(Cl)cc1)N1CCN(/C(S)=N/c2ccccc2F)CC1 [MLS001002653-01],,97,2.37,94,,,
CCCn1c(SCC(=O)Nc2cc(Cl)ccc2Cl)n[nH]c1=O [MLS001002877-01],,97,5.31,94,,,
Cc1ccccc1OCC(O)CN(Cc1ccccc1O)C1CCCCC1 (stereo not shown) [MLS001002964-01],,85,0.119,90,,,
COc1ccccc1N1CCN(C(=O)c2ccc3c(=O)n(Cc4ccc5c(c4)OCO5)c(=O)[nH]c3c2)CC1 [MLS001028591-01],,,2.99,,94,,
Cc1ccccc1C(=O)NC(CC(C)C)C(=O)OCC(=O)c1c(N)n(C)c(=O)n(C)c1=O (stereo not shown) [MLS001033160-01],,,2.66,,106,,
CCn1c2c(c(=N)c3ccccc31)CCC2 [MLS001047391-01],,,6.68,,97.3,,
CCn1c2c(c(=N)c3c1CCC3)CCCC2 [MLS001047512-01],,,13.3,,100,,
CCCc1nnc(NC(=O)c2cn(CC)c3cc(N4CCN(C)CC4)c(F)cc3c2=O)s1 [MLS001049245-01],,,8.41,,105,,
CCCNC(=O)c1ccc(N2CCC3(CC2)CC(c2cccc(Br)c2)=NO3)c(NC(=O)c2ccco2)c1 [MLS001074397-01],,118,2.99,104,,,
CCOc1cc(C(=O)N2CCC(CC3CC(c4cccc(Br)c4)=NO3)(C(=O)NCC3CCCCC3)CC2)cc(OCC)c1OCC (stereo not shown) [MLS001074456-01],,106,1.68,103,,,
Cc1ccc(S(=O)(=O)NC(=O)Nc2ccc(N(C)C)cc2)cc1 [MLS001098045-01],,100,1.33,99,,,
Cc1onc(-c2ccc(Cl)cc2)c1-c1ccnn1S(=O)(=O)c1ccc(Cl)cc1 [MLS001111121-01],,,1.88,,100,,
O=S(=O)(c1ccc(Cl)cc1)N1CCN(C(S)=NCC2CCCO2)CC1 (stereo not shown) [MLS001124005-01],,85,1.88,85,,,
Cc1ccc(S(=O)(=O)c2nnn3c2nc(N2CCN(c4ccccn4)CC2)c2ccccc23)cc1 [MLS001124278-01],98.6,98.6,7.5,,,,
Nc1nonc1-n1nnc(C(=O)N/N=C/c2cccs2)c1-c1ccc2c(c1)OCO2 [MLS001142649-01],,92,1.68,91,,,
COc1ccc(CCn2c(=N)c(C(=O)NC3CCCC3)cc3c(=O)n4cccc(C)c4nc32)cc1 [MLS001147827-01],,,0.75,,94.5,,
CCCc1cc(=O)oc2cc(C)cc(OC(C)C(=O)NCC(O)c3ccccc3)c12 (stereo not shown) [MLS001158075-01],,84,0.841,88,,,
CCCc1cc(=O)oc2cc(C)cc(OCC(=O)NC3CC3)c12 [MLS001159103-01],,121,4.73,104,,,
CC(OC(=O)CCc1cc(C(C)(C)C)c(O)c(C(C)(C)C)c1)C(=O)NC1CC1 (stereo not shown) [MLS001159754-01],,104,4.73,101,,,
